Values of other authors in US4127532A, “Novel heptapeptides, intermediates therefor, and compositions and methods employing said heptapeptides” (priority 1977, dated 1978).

Experiments:
[1] = system: partially purified brain opiate receptor sites
[2] = injected directly into the brain of the rat

Substance: H-Tyr-Gly-Gly-Phe-Met-OH [methionine enkephalin]
- activity in bioassays for opiate activity (opiate activity): very active
- binding to partially purified brain opiate receptor sites [1]: binds stereo-specifically
- analgesic activity [2]: weak analgesic agent of short duration
